One series concerns porphyrin synthesis. The note with it: in vivo. From the text: Example 4 relates to a study of imaging of porphyrin synthesis in-vivo.
Porphyrin plays an important role in an organism. It is important for the study of physiological conditions, biochemical condition, and diseases to know the porphyrin synthesis in vivo. 5-ALA is a precursor of the porphyrin synthesis. After it is irradiated by photons of 50 MV with a dosage of 30 Gy (gray), a ^12C atom of the 5-ALA molecule is converted into an ^11C positron nuclide and a ^16O atom therein is converted into an ^15O positron nuclide.

A further series deals with SD rats. The series can be described thus: distribution after tail vein injection of 11C/15O-labeled adriamycin. Type of series: in vivo, rat. To be noted: labeled with 11C and 15O. On the procedure:
(§1) The details of the procedure of the present example are as follow: 3 mg of adriamycin is irradiated by 50 MV of photons with a dosage of 30 Gy (gray). […] A ^12C atom of the adriamycin molecule is converted into a ^11C positron nuclide and an ^16O atom therein is converted into a ^15O positron nuclide.

Series [1] can be described thus: fluorescence analysis of structure after photon irradiation. Type of series: physicochemical. To be noted: 3 mg irradiated by 50 MV photons, 30 Gy. The method, then:
as §1

In the case of `NCC(=O)CCC(=O)O` [5-ALA], the “main organ of porphyrin synthesis” value in the series with porphyrin synthesis is recorded as “liver is the main organ of porphyrin synthesis”.

For the compound `COc1cccc2c1C(=O)c1c(O)c3c(c(O)c1C2=O)C[C@@](O)(C(=O)CO)C[C@@H]3O[C@H]1C[C@H](N)[C@H](O)[C@H](C)O1` [adriamycin], in the series on SD rats, the “site of accumulation in vivo” value was “accumulates at the heart”. In addition, in series [1], the “structure after the irradiation (fluorescence analysis)” value is “no change in the structure”.

Source of the values: US8709381B2, “Compound containing a carbon or an oxygen isotope, preparation and use thereof, and composition comprising thereof” (Beijing Top Grade Medical Equipment Co., Ltd, priority 2010, dated 2014).
